Results from EP0512042B1, “GLP-1 ANALOGS USEFUL FOR DIABETES TREATMENT” (BUCKLEY, Douglas I., priority 1990, dated 1998).
Read-outs that look alike come from different tables or passages of the source. Ends that are not written are not given here.

Assays:
RIN 1046-38 cells = system: RIN 1046-38 cells
Description: An additional test for potency of the compounds of the invention measures their ability to stimulate cAMP production in RIN 1046-38 cells. This assay can be conducted as follows:
On day 1, 5 x 10^5 RIN 1046-38 cells (Drucker, D.J., et al., Proc Natl Acad Sci USA (1987) 84:3434-3438) are seeded into individual wells of 6-well dishes with 2.5 mL M199 culture medium. On day 4, cells are re-fed with fresh medium and on day 5 the assay is performed. At this time there are ~2.0-2.5 x 10^6 cells per well. Assays are only performed on cell passage <24.
At time -60 min, monolayers are washed twice with 2.5 mL PBS, and medium is changed to 1.0 mL of DMEM medium plus 4.5 g/l glucose and 0.1% BSA (assay medium). At 0 time, medium is aspirated and fresh assay medium, 1.0 mL, containing test compound is added. Test compound is added in 50 ul volume of PBS plus 0.1% BSA; controls are added in vehicle alone. Incubation is continued for 0 to 60 min.
At termination, conditioned medium and monolayer are harvested to measure both extra- and intracellular cAMP content. For extracellular measurement, medium is removed and centrifuged to remove any cellular debris. For intracellular determination, after medium removal, 1.0 mL of ice cold 95% ethanol is added to monolayer. Cells are collected by scraping, lysed by two cycles of quick freeze/thawing using liquid N2, and cell debris then removed by centrifugation. Aliquots (1/40th well content) of conditioned medium and ethanol cell extract are measured in duplicate for cAMP levels using an RIA kit by the acetylated protocol.
Insulin secretion can also be measured by the method described by Holst, J.J., et al. FEBS Letters (1987) 211:169-174 (supra). Also useful as an assay for insulinotropic effect is the measurement of stimulation of adenylate cyclase in the RIN 1046-38 cell line. Drucker, D.J. et al., Proc Natl Acad Sci USA (1987) 84:3434-3438 (supra).

[1] = resistance to degradation in plasma, assay by RP-HPLC; details: incubation in plasma for 60 minutes
Description: In all assays, the plasma is prepared by collecting blood into heparinized tubes, placing the tubes on ice and centrifuging at about 3,000 rpm for 10 minutes in a tabletop centrifuge. The separated plasma is stored at 4°C.
In this assay, the analog is added to plasma for various times and recovered similarly to the method described above for radiolabel sequencing analysis. Specifically, the analog at a concentration of 100 nM in RIA buffer is spiked into 1 mL plasma to a final concentration of 1 nM and after incubation in 37°C circulating water bath for various preset times, the reaction is stopped by bringing the plasma to 0.1% (w/v) in bacitracin.
The peptides are then purified by Sep-Pak extraction as described above. The eluates are concentrated to about 1 mL on a Speed-vac, diluted with 1 mL distilled water, frozen at 80°C and lyophilized overnight. The powder is resuspended in 0.5 mL Buffer C (0.1% TFA in water) per mL starting plasma and 0.25 mL are injected on a Hewlett-Packard 1090L liquid chromatograph using an Alltech* C18 column (0.45 x 25 cm; 10 µm particle size) with a Brownlee 2 cm C18 guard column. The extraction is monitored at OD214 throughout the run and the solvent flow rate was 1 mL/minute. A gradient between Buffer C and Buffer D (0.1% TFA in acetonitrile) is set up over a 40 minute run time. The gradient starts at 35% D is held for the first 2 minutes after injection and then increased to 42% D over 24 minutes. The gradient is then increased to 60% D over the next two minutes, held at this level for 2 minutes and returned to 35% D over the next 2 minutes. The %D remains at 35% for the remaining 8 minutes of the run. Fractions are collected at 0.5 minute intervals for the first 30 minutes of each run and dried in a Speed-vac.

Compound	Resistance to Degradation [1]	ED50 nM Duplicate Assays (RIN 1046-38 cells) [nM]	ED50 nM Duplicate Assays (RIN 1046-38 cells; first of the duplicate assays) [nM]	ED50 nM Duplicate Assays (RIN 1046-38 cells; second of the duplicate assays) [nM]
CC[C@H](C)[C@H](NC(=O)[C@H](Cc1ccccc1)NC(=O)[C@H](CCC(=O)O)NC(=O)[C@H](CCCCN)NC(=O)[C@H](C)NC(=O)[C@H](C)NC(=O)[C@H](CCC(N)=O)NC(=O)CNC(=O)[C@H](CCC(=O)O)NC(=O)[C@H](CC(C)C)NC(=O)[C@H](Cc1ccc(O)cc1)NC(=O)[C@H](CO)NC(=O)[C@H](CO)NC(=O)[C@@H](NC(=O)[C@H](CC(=O)O)NC(=O)[C@H](CO)NC(=O)[C@@H](NC(=O)[C@H](Cc1ccccc1)NC(=O)[C@@H](NC(=O)CNC(=O)[C@H](CCC(=O)O)NC(=O)[C@H](C)NC(=O)[C@@H](N)CCCCN)[C@@H](C)O)[C@@H](C)O)C(C)C)C(=O)N[C@@H](C)C(=O)N[C@@H](Cc1c[nH]c2ccccc12)C(=O)N[C@@H](CC(C)C)C(=O)N[C@H](C(=O)N[C@@H](CCCCN)C(=O)NCC(=O)N[C@@H](CCCNC(=N)N)C(=O)NCC(=O)O)C(C)C [(K)^7-GLP-1(7-37)]	-	350.0		
CC[C@H](C)[C@H](NC(=O)[C@H](Cc1ccccc1)NC(=O)[C@H](CCC(=O)O)NC(=O)[C@H](CCCCN)NC(=O)[C@H](C)NC(=O)[C@H](C)NC(=O)[C@H](CCC(N)=O)NC(=O)CNC(=O)[C@H](CCC(=O)O)NC(=O)[C@H](CC(C)C)NC(=O)[C@H](Cc1ccc(O)cc1)NC(=O)[C@H](CO)NC(=O)[C@H](CO)NC(=O)[C@@H](NC(=O)[C@H](CC(=O)O)NC(=O)[C@H](CO)NC(=O)[C@@H](NC(=O)[C@H](Cc1ccccc1)NC(=O)[C@@H](NC(=O)CNC(=O)[C@H](CCC(=O)O)NC(=O)[C@H](C)NC(=O)[C@H](Cc1c[nH]cn1)NC(C)=O)[C@@H](C)O)[C@@H](C)O)C(C)C)C(=O)N[C@@H](C)C(=O)N[C@@H](Cc1c[nH]c2ccccc12)C(=O)N[C@@H](CC(C)C)C(=O)N[C@H](C(=O)N[C@@H](CCCCN)C(=O)NCC(=O)N[C@@H](CCCNC(=N)N)C(=O)NCC(=O)O)C(C)C [(N-acetyl-H) ^7-GLP-1(7-37), (N-acetyl-H)^7-GLP-1(7-37)]	+	15.5		
CC[C@H](C)[C@H](NC(=O)[C@H](Cc1ccccc1)NC(=O)[C@H](CCC(=O)O)NC(=O)[C@H](CCCCN)NC(=O)[C@H](C)NC(=O)[C@H](C)NC(=O)[C@H](CCC(N)=O)NC(=O)CNC(=O)[C@H](CCC(=O)O)NC(=O)[C@H](CC(C)C)NC(=O)[C@H](Cc1ccc(O)cc1)NC(=O)[C@H](CO)NC(=O)[C@H](CO)NC(=O)[C@@H](NC(=O)[C@H](CC(=O)O)NC(=O)[C@H](CO)NC(=O)[C@@H](NC(=O)[C@H](Cc1ccccc1)NC(=O)[C@@H](NC(=O)CNC(=O)[C@H](CCC(=O)O)NC(=O)[C@H](C)NC(=O)[C@H](CCCCN)NC(C)=O)[C@@H](C)O)[C@@H](C)O)C(C)C)C(=O)N[C@@H](C)C(=O)N[C@@H](Cc1c[nH]c2ccccc12)C(=O)N[C@@H](CC(C)C)C(=O)N[C@H](C(=O)N[C@@H](CCCCN)C(=O)NCC(=O)N[C@@H](CCCNC(=N)N)C(=O)NCC(=O)O)C(C)C [(N-acetyl-K)^7 GLP-1 (7-37)]	+			
GLP-1(1-37) [reference compound]			>1000	2900
GLP-1(3-37) (EFERHAEGTFTSDVSSYLEGQAAKEFIAWLVKGRG; Glucagon-like peptide 1; UniProt P01275 94-128, looked up, fragment) [reference compound]			70	81
GLP-1(4-37) (FERHAEGTFTSDVSSYLEGQAAKEFIAWLVKGRG; Glucagon-like peptide 1; UniProt P01275 95-128, looked up, fragment) [reference compound]			130	200
GLP-1(5-37) (ERHAEGTFTSDVSSYLEGQAAKEFIAWLVKGRG; Glucagon-like peptide 1; UniProt P01275 96-128, looked up, fragment) [reference compound]			150	750 to 970
GLP-1(7-37)			0.16	0.25
gastric inhibitory peptide [GIP, reference compound]			10.0	37.5

The next lines start with results.

Resistance to Degradation [1]	Compound	ED50 nM Duplicate Assays (RIN 1046-38 cells) [nM]	ED50 nM Duplicate Assays (RIN 1046-38 cells; first of the duplicate assays) [nM]	ED50 nM Duplicate Assays (RIN 1046-38 cells; second of the duplicate assays) [nM]
+	CC[C@H](C)[C@H](NC(=O)[C@H](Cc1ccccc1)NC(=O)[C@H](CCC(=O)O)NC(=O)[C@H](CCCCN)NC(=O)[C@H](C)NC(=O)[C@H](C)NC(=O)[C@H](CCC(N)=O)NC(=O)CNC(=O)[C@H](CCC(=O)O)NC(=O)[C@H](CC(C)C)NC(=O)[C@H](Cc1ccc(O)cc1)NC(=O)[C@H](CO)NC(=O)[C@H](CO)NC(=O)[C@@H](NC(=O)[C@H](CC(=O)O)NC(=O)[C@H](CO)NC(=O)[C@@H](NC(=O)[C@H](Cc1ccccc1)NC(=O)[C@@H](NC(=O)CNC(=O)[C@H](CCC(=O)O)NC(=O)[C@H](C)NC(=O)[C@H](Cc1c[nH]cn1)NC(C)C)[C@@H](C)O)[C@@H](C)O)C(C)C)C(=O)N[C@@H](C)C(=O)N[C@@H](Cc1c[nH]c2ccccc12)C(=O)N[C@@H](CC(C)C)C(=O)N[C@H](C(=O)N[C@@H](CCCCN)C(=O)NCC(=O)N[C@@H](CCCNC(=N)N)C(=O)NCC(=O)O)C(C)C [(N-isopropyl-H) ^7-GLP-1(7-37), (N-isopropyl-H)^7-GLP-1(7-37)]	15.5		
-	CC[C@H](C)[C@H](NC(=O)[C@H](Cc1ccccc1)NC(=O)[C@H](CCC(=O)O)NC(=O)[C@H](CCCCN)NC(=O)[C@H](C)NC(=O)[C@H](C)NC(=O)[C@H](CCC(N)=O)NC(=O)CNC(=O)[C@H](CCC(=O)O)NC(=O)[C@H](CC(C)C)NC(=O)[C@H](Cc1ccc(O)cc1)NC(=O)[C@H](CO)NC(=O)[C@H](CO)NC(=O)[C@@H](NC(=O)[C@H](CC(=O)O)NC(=O)[C@H](CO)NC(=O)[C@@H](NC(=O)[C@H](Cc1ccccc1)NC(=O)[C@@H](NC(=O)CNC(=O)[C@H](CCC(N)=O)NC(=O)[C@H](C)NC(=O)[C@@H](N)Cc1c[nH]cn1)[C@@H](C)O)[C@@H](C)O)C(C)C)C(=O)N[C@@H](C)C(=O)N[C@@H](Cc1c[nH]c2ccccc12)C(=O)N[C@@H](CC(C)C)C(=O)N[C@H](C(=O)N[C@@H](CCCCN)C(=O)NCC(=O)N[C@@H](CCCNC(=N)N)C(=O)NCC(=O)O)C(C)C [(Q)^9 GLP-1 (7-37)]			
-	CC[C@H](C)[C@H](NC(=O)[C@H](Cc1ccccc1)NC(=O)[C@H](CCC(=O)O)NC(=O)[C@H](CCCCN)NC(=O)[C@H](C)NC(=O)[C@H](C)NC(=O)[C@H](CCC(N)=O)NC(=O)CNC(=O)[C@H](CCC(=O)O)NC(=O)[C@H](CC(C)C)NC(=O)[C@H](Cc1ccc(O)cc1)NC(=O)[C@H](CO)NC(=O)[C@H](CO)NC(=O)[C@@H](NC(=O)[C@H](CC(=O)O)NC(=O)[C@H](CO)NC(=O)[C@@H](NC(=O)[C@H](Cc1ccccc1)NC(=O)[C@@H](NC(=O)CNC(=O)[C@H](CCC(=O)O)NC(=O)[C@H](C)NC(=O)[C@@H](N)Cc1ccc(O)cc1)[C@@H](C)O)[C@@H](C)O)C(C)C)C(=O)N[C@@H](C)C(=O)N[C@@H](Cc1c[nH]c2ccccc12)C(=O)N[C@@H](CC(C)C)C(=O)N[C@H](C(=O)N[C@@H](CCCCN)C(=O)NCC(=O)N[C@@H](CCCNC(=N)N)C(=O)NCC(=O)O)C(C)C [(Y)^7-GLP-1(7-37)]	5.0		
-	HSQGTFTSDYSKYLDGQAAKEFIAWLVKGRG [(S)^8(Q)^9(Y)^16(K)^18(D)^21-GLP-1(7-37)]	0.31		
